Data published in patent US4965280A, “Antifungal carbinols” (E. I. Du Pont de Nemours and Company, priority 1989, dated 1990).

Columns and labels:
[1] = test system: RICE JAP TOL; assay: Test C rice paddy; assay type: in vivo, Japonica rice; settings: 21 days
How it was run: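 Transplanted paddy test in flooded silt loam: Japonica and Indica rice at 2.0–2.5 leaf stage, water plantain, Scirpus and Cyperus seedlings or sprouted tubers, barnyardgrass from seed. Water raised to 3 cm 3–4 days after planting; compound in nonphytotoxic solvent added to paddy water within 24 h. Greenhouse.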

[2] = test system: REDROOT PIGWEED; assay: Test F; assay type: in vivo, Amaranthus retroflexus
Description: (§1) Weed species were planted 3 or 4 per 15-cm diameter pot in Sassafras sandy loam (pH 6.8; 1% OM). Cotton was planted separately in the same sized pot. Postemergence plantings were made 12-16 days prior to treating so plants were in the 2- to 3-leaf stage (5-12 cm tall). Preemergence plantings were made the day before treating. Compounds were sprayed in a suitable non-phytotoxic solvent at 374 l/ha, then after 3 weeks of growth in a greenhouse, plant responses were visually rated on a percent scale where 0=no injury and 100=plant death.

[3] = test system: COCKLEBUR; assay: Test F; assay type: in vivo, Xanthium pensylvanicum
Description: as §1

[4] = test system: IVY MORNINGGLORY; assay: Test F; assay type: in vivo, Ipomoea hederacea
Description: as §1

[5] = test system: PRICKLY SIDA; assay: Test F; assay type: in vivo, Sida spinosa
Description: as §1

[6] = test system: JOHNSONGRASS; assay: Test F; assay type: in vivo, Sorghum halepense
Description: as §1

[7] = test system: PURPLE NUTSEDGE; assay: Test F; assay type: in vivo, Cyperus rotundus
Description: as §1

[8] = test system: COKER COTTON; assay: Test F; assay type: in vivo, Gossypium hirsutum
Description: as §1

[9] = test system: GOOSEGRASS; assay: Test F; assay type: in vivo, Eleusine indica
Description: as §1

[10] = test system: SICKLEPOD; assay: Test F; assay type: in vivo, Cassia obtusifolia
Description: as §1

[11] = test system: GROUND CHERRY; assay: Test F; assay type: in vivo, Physalis heterophylla
Description: as §1

[12] = test system: LADY SMARTWEED; assay: Test E; assay type: in vivo, Polygonum persicaria
Description: Seeds of the following crops and weeds are sown into 15 cm pots containing Sassafras sandy loam soil: wheat (Triticum aestivum cv. Park), barley (Hordeum vulgare cv. Bonanza), sugarbeet (Beta vulgaris cv. USH-11), rapeseed (Brassica napus cv. Jet Neuf), black nightshade (Solanum nigrum), chickweed (Stellaria media), lambsquarter (Chenopodium album), Galium aparine, knotweed (Polygonum aviculare), Kochia scoparia, Matricaria indora, redroot pigweed (Amaranthus retroflexus), smartweed (Polygonum persicaria), speedwell (Veronica persica), wild buckwheat (Polygonum convolvulus), wild mustard (Brassica spp.), wild radish (Raphanus raphanistrum), annual bluegrass (PO annua), annual ryegrass (Lolium multiflorum), blackgrass (Alopercurus mysuroides), green foxtail (Setaria viridis), and wild oats (Avena fatua). Compounds are formulated in a nonphytotoxic solvent and applied to the plants as a foliar spray or applied to the soil surface. Plants are treated at two stages: preemergence, or postemergence when the sugarbeets are at the 2-3 true leaf stage. Plants are grown in a temperature-controlled greenhouse for the duration of the test.
Weed control and crop injury are evaluated visually at 3-4 weeks after compound application, using a scale of 0 to 100%, where 0=no injury and 100=complete death of the plant. All plants are rated with respect to untreated plants (checks) grown in the greenhouse under identical conditions to the treated plants.

[13] = test system: VELVETLEAF; assay: Test F; assay type: in vivo, Abutilon theophrasti
Description: as §1

[14] = test system: BERMUDAGRASS; assay: Test F; assay type: in vivo, Cynodon dactylon
Description: as §1

[15] = test system: CMN PURSLANE; assay: Test F; assay type: in vivo, Portulaca oleracea
Description: as §1

C=C(c1ccccc1Cl)C(O)(Cn1cncn1)c1ccc(F)cc1F (centres unmarked) [Example 35]
plant response ([1]; 0032 G/HA): 0 | plant response ([1]; 0125 G/HA): 20 | plant response ([1]; 0500 G/HA): 50 | plant response ([1]; 2000 G/HA): 50

C=C(c1ccc(F)cc1)C(O)(Cn1cncn1)c1ccc(F)cc1F (centres unmarked) [Example 4, 2-(2,4-Difluorophenyl)-3-(4-fluorophenyl)-1-(1H-1,2,4-triazol-1-yl)-3-buten-2-ol]
plant response ([2]; PREEMERGENCE 0032 GM/HA): 50% | plant response ([2]; PREEMERGENCE 0064 GM/HA): 70% | plant response ([2]; PREEMERGENCE 0125 GM/HA): 60% | plant response ([2]; PREEMERGENCE 0250 GM/HA): 100% | plant response ([2]; PREEMERGENCE 0500 GM/HA): 100% | plant response ([3]; PREEMERGENCE 0032 GM/HA): 0% | plant response ([3]; PREEMERGENCE 0064 GM/HA): 0% | plant response ([3]; PREEMERGENCE 0125 GM/HA): 0% | plant response ([3]; PREEMERGENCE 0250 GM/HA): 0% | plant response ([3]; PREEMERGENCE 0500 GM/HA): 0% | plant response ([4]; PREEMERGENCE 0032 GM/HA): 0% | plant response ([4]; PREEMERGENCE 0064 GM/HA): 0% | plant response ([4]; PREEMERGENCE 0125 GM/HA): 0% | plant response ([4]; PREEMERGENCE 0250 GM/HA): 0% | plant response ([4]; PREEMERGENCE 0500 GM/HA): 0% | plant response ([5]; PREEMERGENCE 0032 GM/HA): 0% | plant response ([5]; PREEMERGENCE 0064 GM/HA): 0% | plant response ([5]; PREEMERGENCE 0125 GM/HA): 0% | plant response ([5]; PREEMERGENCE 0250 GM/HA): 100% | plant response ([5]; PREEMERGENCE 0500 GM/HA): 90% | plant response ([6]; PREEMERGENCE 0032 GM/HA): 0% | plant response ([6]; PREEMERGENCE 0064 GM/HA): 0% | plant response ([6]; PREEMERGENCE 0125 GM/HA): 20% | plant response ([6]; PREEMERGENCE 0250 GM/HA): 50% | plant response ([6]; PREEMERGENCE 0500 GM/HA): 50% | plant response ([7]; PREEMERGENCE 0032 GM/HA): 0% | plant response ([7]; PREEMERGENCE 0064 GM/HA): 0% | plant response ([7]; PREEMERGENCE 0125 GM/HA): 0% | plant response ([7]; PREEMERGENCE 0250 GM/HA): 0% | plant response ([7]; PREEMERGENCE 0500 GM/HA): 0% | plant response ([8]; PREEMERGENCE 0032 GM/HA): 0% | plant response ([8]; PREEMERGENCE 0064 GM/HA): 0% | plant response ([8]; PREEMERGENCE 0125 GM/HA): 0% | plant response ([8]; PREEMERGENCE 0250 GM/HA): 0% | plant response ([8]; PREEMERGENCE 0500 GM/HA): 0% | plant response ([9]; PREEMERGENCE 0032 GM/HA): 80% | plant response ([9]; PREEMERGENCE 0064 GM/HA): 80% | plant response ([9]; PREEMERGENCE 0125 GM/HA): 100% | plant response ([9]; PREEMERGENCE 0250 GM/HA): 100% | plant response ([9]; PREEMERGENCE 0500 GM/HA): 100% | plant response ([10]; PREEMERGENCE 0032 GM/HA): 0% | plant response ([10]; PREEMERGENCE 0064 GM/HA): 0% | plant response ([10]; PREEMERGENCE 0125 GM/HA): 0% | plant response ([10]; PREEMERGENCE 0250 GM/HA): 0% | plant response ([10]; PREEMERGENCE 0500 GM/HA): 0% | plant response ([11]; PREEMERGENCE 0032 GM/HA): 0% | plant response ([11]; PREEMERGENCE 0064 GM/HA): 0% | plant response ([11]; PREEMERGENCE 0125 GM/HA): 0% | plant response ([11]; PREEMERGENCE 0250 GM/HA): 0% | plant response ([11]; PREEMERGENCE 0500 GM/HA): 0% | plant response ([12]; PREEMERGENCE 0500 GM/HA): 100% | plant response ([13]; PREEMERGENCE 0032 GM/HA): 0% | plant response ([13]; PREEMERGENCE 0064 GM/HA): 0% | plant response ([13]; PREEMERGENCE 0125 GM/HA): 0% | plant response ([13]; PREEMERGENCE 0250 GM/HA): 0% | plant response ([13]; PREEMERGENCE 0500 GM/HA): 30% | plant response ([14]; PREEMERGENCE 0032 GM/HA): 0% | plant response ([14]; PREEMERGENCE 0064 GM/HA): 20% | plant response ([14]; PREEMERGENCE 0125 GM/HA): 95% | plant response ([14]; PREEMERGENCE 0250 GM/HA): 100% | plant response ([14]; PREEMERGENCE 0500 GM/HA): 100% | plant response ([15]; PREEMERGENCE 0032 GM/HA): 0% | plant response ([15]; PREEMERGENCE 0064 GM/HA): 20% | plant response ([15]; PREEMERGENCE 0125 GM/HA): 30% | plant response ([15]; PREEMERGENCE 0250 GM/HA): 30% | plant response ([15]; PREEMERGENCE 0500 GM/HA): 80%

C=C(c1ccc(F)cc1)C(O)(Cn1cncn1)c1ccccc1F (centres unmarked) [Example 644]
plant response ([12]; POSTEMERGENCE 0064 GM/HA): 0% | plant response ([12]; POSTEMERGENCE 0125 GM/HA): 100% | plant response ([12]; POSTEMERGENCE 0250 GM/HA): 100% | plant response ([12]; POSTEMERGENCE 0500 GM/HA): 100%
